The assay concerns endometrium of the superovulated pseudopregnant rabbit. Kind of assay: Endometrial receptivity in the superovulated pseudopregnant rabbit model. The format is in vivo, New Zealand White rabbits. To be noted: for endometrial maturation (in words): compared with Group 1 controls not subject to ovarian hyperstimulation; for Mc-Phail [x ± SD] (endometrial transformation index, 1 no to 4 high transformation) / Uterine wet weight [x ± SD]: measured at d5 p.hCG; for Uteroglobin ISH [expression in luminal epithelial cells]: uteroglobin mRNA at d5 p.hCG. The method, then:
The effects of a 17α-fluoralkylated progesterone receptor antagonist on endometrial activity was evaluated in the superovulated pseudopregnant rabbit model. The pseudopregnancy of the rabbit has proven to be a model system for the human luteal phase (Beier and Kuhnel, 1973, Hormone Res. 4:1-27; Fischer et al., 1985, Fertilitat 1:101-109. In this species, ovarian stimulation induces an advancement of secretory transformation (Delbos-Winter et al., 1987, Fertilitat 3: 87-93) as well as an enhancement of gland formation.
A total of 25 sexually mature nulliparous New Zealand White rabbits with a body weight of 3.1 to 4.0 kg were used for the analysis. The animals were divided into two control groups (groups 1 and 2) and three treatment groups (groups 3-5), with five animals in each group.
Control group 1 received 75 international units (IU) of human chorionic gonadotropin (hCG) administered intravenously in order to induce pseudopregnancy. The day of hCG-injection was designated as day 0 of pseudopregnancy (d0 p.hCG).
Control group 2 and treatment groups 3, 4, and 5 were gonadotropin-stimulated with 5 IU of the human menopausal gonadotropin (HMG) Pergonal® (Serono Pharma, Unterschleipheim, Germany) for 3 days, by subcutaneous injection, in order to induce multiple follicular growth. Pseudopregnancy was induced by the administration of human chorionic gonadotropin (hCG) as described for control group 1 above.
Treatment groups 3, 4 and 5 also received a single per oral application of a 17α-fluoralkylated progesterone receptor antagonist (Compound A) two days after pseudopregnancy induction with the administration of human chorionic gonadotropin (d2 p.hCG).
Animals in all treatment groups were sacrificed on day 5 following pseudopregnancy induction (d5 p.hCG), and uteri were removed. Relative uterine wet weights were determined (in mg/100 g body weight) and a part of the uterus was snap frozen in liquid nitrogen for determination of uteroglobin expression by in situ hybridization. Uteroglobin expression is known as a highly sensitive parameter for determination of endometrial receptivity (Beier, H. M., 1968, Biochem Biophys. Acta. 160:289-291; Beier, H. M., 1982, in: Beier, H. M. and Karlson, P. (eds.), Proteins and Steroids in Early Pregnancy), and is a marker for secretory activity (Beier, 1976, J. Reprod. Fertil. Suppl. 25:53-69) and differentiation of the endometrial epithelium (Krusche & Beier, 1994, Ann. Anat. 176:23-31). In situ hybridization for detection of uteroglobin expression was conducted as previously described in Krusche & Beier, above. Another piece of the uterus was removed and processed for paraffin histology in order to determine the endometrial transformation status using the McPhail-Index (McPhail M k, 1934, J. Phys. 83:145-156) The McPhail Index reflects different degrees of progestogenic (transforming) activity in the rabbit endometrium:
3. pronounced transformation

The mark [1] stands for this setting: Group 3: HMG + hCG, single per oral 0.1 mg/kg on d2 p.hCG.
Where [2] appears, read: Group 4: HMG + hCG, single per oral 1 mg/kg on d2 p.hCG.
Where [3] appears, read: Group 5: HMG + hCG, single per oral 10 mg/kg on d2 p.hCG.

Molecules are shown by their SMILES.

For `CC(=O)c1ccc([C@H]2C[C@@]3(C)[C@@H](CC[C@@]3(O)C(F)(F)C(F)(F)F)[C@@H]3CCC4=CC(=O)CCC4=C32)cc1` [Compound A, 11β-(4-acetylphenyl)-17β-hydroxy-17α-(1,1,2,2,2-pentafluoroethyl)estra-4,9-dien-3-one], the “endometrial maturation (in words)” value by setting is: (0.1 mg/kg (Group 3)) “roughly corresponded with that of control animals which were not subject to ovarian hyperstimulation”; (1 mg/kg (group 4)) “delayed the timing of maturation beyond that observed in animals which were not subject to hyperovarian stimulation”; (10 mg/kg (group 5)) “delayed the timing of maturation beyond that observed in animals which were not subject to hyperovarian stimulation”. The “Mc-Phail [x ± SD] (endometrial transformation index, 1 no to 4 high transformation)” value is 3.0 ± 0.1 under setting [1], 1.5 ± 0.3 under setting [2] and 1.1 ± 0.3 under setting [3]. The “Uterine wet weight [x ± SD]” value under setting [1] is reported as 305 ± 48 mg/kg, the “Uterine wet weight [x ± SD]” value under setting [2] was determined as 227 ± 56 mg/kg and the “Uterine wet weight [x ± SD]” value under setting [3] came out at 144 ± 30 mg/kg. Besides, the “Uteroglobin ISH [expression in luminal epithelial cells]” value (from here on “Uteroglobin ISH”) under setting [1] is given as “very high”, the “Uteroglobin ISH” value under setting [2] was “very low” and the “Uteroglobin ISH” value under setting [3] is recorded as “absent”.
